Drawing on patent US12344597B2, “Alkoxy-substituted pyridinyl derivatives as LPA1 receptor antagonists and their use in the treatment of fibrosis” (IDORSIA PHARMACEUTICALS LTD, priority 2018, dated 2025), this text covers IC50 for 22 compounds.

As usually defined, the pIC50 is the IC50 on a negative log10 scale, so that one unit is a factor of ten. Lower therefore signals a high IC50.

This assay addresses human LPA1 receptor (Homo sapiens (Human), UniProt Q92633). As to the kind of experiment: Beta-arrestin recruitment assay to determine IC50 values for human LPAR1. It counts as cell-based. Particulars: antagonist mode, Tango EDG2-bla U2OS cells, LPA 18:1 500 nM final. The gist of the method:
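Tango EDG2-bla U2OS cells: LPA-driven beta-arrestin/TEV protease recruitment releases Gal4-VP16, inducing beta-lactamase reporter read with live-cell substrate. Cells seeded 20 h at 37 °C beforehand. IC50 is antagonist concentration inhibiting 50% of maximal response.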
(In general: Recruitment of arrestin is a read-out of receptor activation apart from second messengers.)

pIC50: −log10 of the molar value.

Chain of human LPA1 receptor (Q92633 whole entry, the tested form may be a part): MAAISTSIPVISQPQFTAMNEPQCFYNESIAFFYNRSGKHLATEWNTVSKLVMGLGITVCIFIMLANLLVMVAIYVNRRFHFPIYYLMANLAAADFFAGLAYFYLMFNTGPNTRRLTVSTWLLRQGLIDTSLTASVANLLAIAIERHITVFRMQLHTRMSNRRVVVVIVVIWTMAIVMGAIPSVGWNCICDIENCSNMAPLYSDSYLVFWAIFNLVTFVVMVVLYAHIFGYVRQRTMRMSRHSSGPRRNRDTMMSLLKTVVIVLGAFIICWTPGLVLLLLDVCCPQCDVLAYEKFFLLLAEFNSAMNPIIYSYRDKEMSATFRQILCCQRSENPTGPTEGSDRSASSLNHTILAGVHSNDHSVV

Consider `COc1nc(C)ccc1NC(=O)C1(c2ccccc2C(C)C)CN(S(N)(=O)=O)C1` [Ex 15-16, 3-(2-isopropylphenyl)-N-(2-methoxy-6-methylpyridin-3-yl)-1-sulfamoylazetidine-3-carboxamide], for which the pIC50 is 7.30.
`CCOc1nc(C)ccc1NC(=O)C1(c2ccccc2C(C)C)CN(S(N)(=O)=O)C1` [Ex 15-17, N-(2-ethoxy-6-methylpyridin-3-yl)-3-(2-isopropylphenyl)-1-sulfamoylazetidine-3-carboxamide] showed a pIC50 of 7.51.
Turning to `Cc1ccc(NC(=O)C2(c3ccccc3C(C)C)CN(S(N)(=O)=O)C2)c(OC(C)C)n1` [Ex 15-18, N-(2-isopropoxy-6-methylpyridin-3-yl)-3-(2-isopropylphenyl)-1-sulfamoylazetidine-3-carboxamide], the pIC50 was 8.15.
In turn, `CC(=O)NS(=O)(=O)N1CC(C(=O)Nc2ccc(C)nc2OC(F)F)(c2ccccc2C(C)C)C1` [Ex 16-1, 1-(N-acetylsulfamoyl)-N-(2-(difluoromethoxy)-6-methylpyridin-3-yl)-3-(2-isopropylphenyl)azetidine-3-carboxamide] showed a pIC50 of 7.16.
To `CC(=O)NS(=O)(=O)N1CC(C(=O)Nc2cccnc2OC(F)F)(c2ccccc2C(C)C)C1` [Ex 16-2, 1-(N-acetylsulfamoyl)-N-(2-(difluoromethoxy)pyridin-3-yl)-3-(2-isopropylphenyl)azetidine-3-carboxamide] belongs 6.80.
As to `CC(=O)NS(=O)(=O)CC(=O)N1CC(C(=O)Nc2ccc(C)nc2OC(F)F)(c2ccccc2C(C)C)C1` [Ex 16-3, 1-(2-(N-acetylsulfamoyl)acetyl)-N-(2-(difluoromethoxy)-6-methylpyridin-3-yl)-3-(2-isopropylphenyl)azetidine-3-carboxamide], the pIC50 is 7.08.
To `CC(=O)NS(=O)(=O)N(C)CC(=O)N1CC(C(=O)Nc2ccc(C)nc2OC(F)F)(c2ccccc2C(C)C)C1` [Ex 16-5, 1-(N-(N-acetylsulfamoyl)-N-methylglycyl)-N-(2-(difluoromethoxy)-6-methylpyridin-3-yl)-3-(2-isopropylphenyl)azetidine-3-carboxamide] belongs 7.33.
`COC(=O)CC(C)(C)NC(=O)N1CC(C(=O)Nc2ccc(C)nc2OC(F)F)(c2ccccc2C(C)C)C1` [Ex 17-1, Methyl 3-(3-((2-(difluoromethoxy)-6-methylpyridin-3-yl)carbamoyl)-3-(2-isopropylphenyl)azetidine-1-carboxamido)-3-methylbutanoate] had a pIC50 of 7.74.
`Cc1ccc(NC(=O)C2(c3ccccc3C(C)C)CN(C(=O)NC(C)(C)CC(=O)O)C2)c(OC(F)F)n1` [Ex 17-2, 3-(3-((2-(difluoromethoxy)-6-methylpyridin-3-yl)carbamoyl)-3-(2-isopropylphenyl)azetidine-1-carboxamido)-3-methylbutanoic acid] showed a pIC50 of 7.92.
Regarding `Cc1ccc(NC(=O)C2(c3ccccc3C(C)C)CCN(C(=O)NCc3c[nH]cn3)CC2)c(OC(F)F)n1` [Ex 17-3, N1-((1H-imidazol-4-yl)methyl)-N4-(2-(difluoromethoxy)-6-methylpyridin-3-yl)-4-(2-isopropylphenyl)piperidine-1,4-carboxamide], the pIC50 is 8.10.
The value for `Cc1ccc(NC(=O)C2(c3ccccc3C(C)C)CN(C(=O)NCC(=O)O)C2)c(OC(F)F)n1` [Ex 17-4, (3-((2-(difluoromethoxy)-6-methylpyridin-3-yl)carbamoyl)-3-(2-isopropylphenyl)azetidine-1-carbonyl)glycine] was 7.47; that for `Cc1ccc(NC(=O)C2(c3ccccc3C(C)C)CN(C(=O)NCCC(=O)O)C2)c(OC(F)F)n1` [Ex 17-5, 3-(3-((2-(difluoromethoxy)-6-methylpyridin-3-yl)carbamoyl)-3-(2-isopropylphenyl)azetidine-1-carboxamido)propanoic acid] was 7.39.
In the case of `COC(=O)[C@@H](NC(=O)N1CC(C(=O)Nc2ccc(C)nc2OC(F)F)(c2ccccc2C(C)C)C1)C(C)C` [Ex 17-6, methyl (3-((2-(difluoromethoxy)-6-methylpyridin-3-yl)carbamoyl)-3-(2-isopropylphenyl)azetidine-1-carbonyl)-L-valinate], the pIC50 is 8.05.
Take `Cc1ccc(NC(=O)C2(c3ccccc3C(C)C)CN(C(=O)N[C@H](C(=O)O)C(C)C)C2)c(OC(F)F)n1` [Ex 17-7, (3-((2-(difluoromethoxy)-6-methylpyridin-3-yl)carbamoyl)-3-(2-isopropylphenyl)azetidine-1-carbonyl)-L-valine]: the pIC50 is 7.59.
Take `COC(=O)[C@H](C)NC(=O)N1CC(C(=O)Nc2ccc(C)nc2OC(F)F)(c2ccccc2C(C)C)C1` [Ex 17-8, methyl (3-((2-(difluoromethoxy)-6-methylpyridin-3-yl)carbamoyl)-3-(2-isopropylphenyl)azetidine-1-carbonyl)-L-alaninate]: the pIC50 was 8.40.
Turning to `Cc1ccc(NC(=O)C2(c3ccccc3C(C)C)CN(C(=O)N[C@@H](C)C(=O)O)C2)c(OC(F)F)n1` [Ex 17-9, (3-((2-(difluoromethoxy)-6-methylpyridin-3-yl)carbamoyl)-3-(2-isopropylphenyl)azetidine-1-carbonyl)-L-alanine], the negative logarithm of the IC50 (pIC50) was 7.32.
The compound `CCOC(=O)C1(NC(=O)N2CC(C(=O)Nc3ccc(C)nc3OC(F)F)(c3ccccc3C(C)C)C2)CC1` [Ex 17-10, ethyl 1-(3-((2-(difluoromethoxy)-6-methylpyridin-3-yl)carbamoyl)-3-(2-isopropylphenyl)azetidine-1-carboxamido)cyclopropane-1-carboxylate] showed a pIC50 of 7.89.
`Cc1ccc(NC(=O)C2(c3ccccc3C(C)C)CN(C(=O)NC3(C(=O)O)CC3)C2)c(OC(F)F)n1` [Ex 17-11, 1-(3-((2-(difluoromethoxy)-6-methylpyridin-3-yl)carbamoyl)-3-(2-isopropylphenyl)azetidine-1-carboxamido)cyclopropane-1-carboxylic acid] showed a pIC50 of 7.34.
The value for `CCOC(=O)C(C)(C)NC(=O)N1CC(C(=O)Nc2ccc(C)nc2OC(F)F)(c2ccccc2C(C)C)C1` [Ex 17-12, ethyl 2-(3-((2-(difluoromethoxy)-6-methylpyridin-3-yl)carbamoyl)-3-(2-isopropylphenyl)azetidine-1-carboxamido)-2-methylpropanoate] was 7.96; that for `Cc1ccc(NC(=O)C2(c3ccccc3C(C)C)CN(C(=O)NC(C)(C)C(=O)O)C2)c(OC(F)F)n1` [Ex 17-13, 2-(3-((2-(difluoromethoxy)-6-methylpyridin-3-yl)carbamoyl)-3-(2-isopropylphenyl)azetidine-1-carboxamido)-2-methylpropanoic acid] was 7.60; that for `COC(=O)C1(CNC(=O)N2CC(C(=O)Nc3ccc(C)nc3OC(F)F)(c3ccccc3C(C)C)C2)CC1` [Ex 17-14, methyl 1-((3-((2-(difluoromethoxy)-6-methylpyridin-3-yl)carbamoyl)-3-(2-isopropylphenyl)azetidine-1-carboxamido)methyl)cyclopropane-1-carboxylate] was 8.15.
Compound `Cc1ccc(NC(=O)C2(c3ccccc3C(C)C)CN(C(=O)NCC3(C(=O)O)CC3)C2)c(OC(F)F)n1` [Ex 17-15, 1-((3-((2-(difluoromethoxy)-6-methylpyridin-3-yl)carbamoyl)-3-(2-isopropylphenyl)azetidine-1-carboxamido)methyl)cyclopropane-1-carboxylic acid] showed a pIC50 of 7.80.
